Measured values reported in US8445677B2, “Substituted pyrimidyl guanidine derivatives having anticancer activity” (University of Southern California, priority 2008, dated 2013).

Experiments:
[1] = test system: HCT116 p53+/+; assay: MTT cytotoxicity assay (Example 2); type: cell-based
Source text: (§1) Human breast cancer cell lines MDA-MB-435 and SkBr-3 were purchased from the American Type Culture Collection (Manassas, Va.). The HCT116 P53+/+ and HCT116 P53−/− cell lines were kindly provided by Dr. Bert Vogelstein (Johns Hopkins Medical Institutions, Baltimore, Md.). The HEY human ovarian carcinoma cell line was kindly provided by Dr. Louis Dubeau (University of Southern California Norris Cancer Center). Cells were maintained as monolayer cultures in media supplemented with 10% fetal bovine serum (Gemini-Bioproducts, Woodland, Calif.) and 2 mmo/lL-glutamine at 37° C. in a humidified atmosphere of 5% C02. To remove the adherent cells from the flask for passaging and counting, cells were washed with PBS without calcium or magnesium, incubated with a small volume of 0.25% trypsin-EDTA solution (Sigma-Aldrich, St. Louis, Mo.) for 5-10 min, and washed with culture medium and centrifuged. All experiments were performed using cells in exponential growth stage. Cells were routinely checked for mycoplasma contamination using a PCR-based assay (Stratagene, Cambridge, UK).
(§2) Stock solutions (10 mM) of all compounds were prepared in DMSO and stored at −20° C. Further dilutions were made fresh in cell-culture media just prior to cell treatment.
(§3) Cytotoxicity was assessed by a 3-(4,5-dimethylthiazol-2-yl)-2,5-diphenyltetrazolium bromide (MTT) assay as previously described.^23 Cells were seeded in 96-well plates and allowed to attach overnight. Cells were subsequently treated with continuous exposure to the corresponding drug for 72 h. An MTT solution (at a final concentration of 0.5 mg/ml) was added to each well, and cells were incubated for 4 h at 37° C. After removal of the medium, DMSO was added and the absorbance was read at 570 nm. All assays were performed in triplicate. The IC50 was determined for each drug from a plot of log (drug concentration) versus percentage of cells killed.

[2] = test system: HCT116 p53−/−; assay: MTT cytotoxicity assay (Example 2); type: cell-based
Source text: as §1, §2, §3

[3] = test system: MDA-MB-435; assay: MTT cytotoxicity assay (Example 2); type: cell-based; conditions: Homo sapiens, MDA-MB-435, 72 h
Source text: as §1, §2, §3

[4] = test system: HEY; assay: MTT cytotoxicity assay (Example 2); type: cell-based, human; conditions: 72 h
Source text: as §1, §2, §3

[5] = test system: SkBr-3; assay: MTT cytotoxicity assay (Example 2); type: cell-based, human
Source text: as §1, §2, §3

[6] = test system: panel of cancer cell lines; assay: MTT cytotoxicity, panel of cancer cell lines (Example 2); type: cell-based
Source text: as §1, §2, §3

[7] = test system: HCT116 p53+/+; assay: MTT cytotoxicity assay (Example 1); type: cell-based; conditions: MTT, 72 h
Source text: (§4) Human breast cancer cells MDA-MB-435 were purchased from the American Type Culture Collection (Manassas, Va.). The HCT116 p53+/+ and HCT116 p53−/− cells were kindly provided by Dr. Bert Vogelstein (Johns Hopkins Medical Institutions, Baltimore, Md.). The human ovarian carcinoma cell line (HEY) which is naturally resistant to cisplatin, was kindly provided by Dr. Louis Dubeau, University of Southern California (USC) Norris Cancer Center, and NIH3T3 normal mouse fibroblast cells were kindly provided by Dr. Michael Press from USC. HEY and NIH3T3 cells were maintained as monolayer cultures in RPMI, HCT 116 cells in McCoy1s5A media and MDA-MB 435 in DMEM. Media were purchased from (Mediatech, Virginia) and supplemented with 10% fetal bovine serum (Gemini-Bioproducts, Woodland, Calif.), 2 mM L-glutamine and 5% Penicillin/streptomycin from Bio whittaker were purchased from VWR. Cells were incubated at 37° C. in a humidified atmosphere of 5% CO2. To remove the adherent cells from the flask for passaging and counting, cells were washed with PBS without calcium or magnesium, incubated with a small volume of 0.25% trypsin-EDTA solution (Sigma-Aldrich, St. Louis, Mo.) for 5-10 min, and washed with culture medium and centrifuged. All experiments were performed using cells at exponential growth stage. Cells were routinely checked for mycoplasma contamination using a PCR-based assay (Stratagene, Tex., USA).
(§5) Stock solutions (10 mM) of all compounds were prepared in DMSO and stored at −20° C. Further dilutions were made fresh in PBS or cell-culture media right before cell treatment.
(§6) Cytotoxicity was assessed by a 3-(4,s-dimethylthiazol-2-yl)-2,5-diphenyltetrazolium bromide (MTT) assay as previously described.^24 Briefly, cells were seeded in 96-well microtiter plates and allowed to attach overnight. Cells were subsequently treated with continuous exposure to the corresponding drug for 72 h. A MTT solution (at a final concentration of 0.5 mglml) was added to each well, and cells were incubated for 4 h at 37° C. After removal of the medium, DMSO was added and the absorbance was read at 570 nm. All assays were done in triplicate. The IC50 was then determined for each drug from a plot of log (drug concentration) versus percentage of cells killed.

[8] = test system: HCT116 p53−/−; assay: MTT cytotoxicity assay (Example 1); type: cell-based; conditions: MTT, 72 h
Source text: as §4, §5, §6

[9] = test system: NIH3T3; assay: MTT cytotoxicity assay (Example 1); type: cell-based, mouse
Source text: as §4, §5, §6

[10] = test system: HCT p53+/+ cells; assay: Colony formation assay; type: cell-based; conditions: several doses
Method: (§7) Colony formation assays were also performed to confirm the activity of these compounds as described.^1,25 Briefly, cells were plated in 6-well plates at a density of 500 cells/well and allowed to attach. The next day, serial dilutions of the corresponding compounds were added and allowed to incubate for 24 h. After exposure, cells were washed in PBS and cultured in drug-free media until colonies were formed (8-10 days). Cells were subsequently washed, fixed with a 1% glutaraldehyde solution for 30 min, and stained with a solution of crystal violet (2%) for 30 min. After staining, cells were thoroughly washed with water. Colonies were imaged on the ChemiDoc Imaging System (Bio-Rad) and counted using the Quantity One quantitation software package (Bio-Rad). The data reported represent means of at least three independent experiments.

[11] = test system: HEY cells; assay: Colony formation assay; type: cell-based, human; conditions: several doses
Method: as §7

[12] = Homo sapiens, HCT-116, 72 h, MTT, 72 h, read-out: IC50 Hct116 p53+/+
[13] = MTT, 72 h, read-out: IC50 Hct116 p53+/+
[14] = Homo sapiens, HCT-116, p53+/+ cell line, read-out: IC50

Row | Compound | IC50 [1, 12] | IC50 ([2]; Homo sapiens, HCT-116, 72 h) | IC50 [3] | IC50 ([4]; Homo sapiens) | IC50 ([5]; Homo sapiens, SK-BR-3, 72 h) | further results
1 | Oc1ccc(CN2CCCCC2)c2cccnc12 [20-SMD58-18] | 6800 ± 1300 nM | 6500 ± 800 nM | 8900 nM | 5000 ± 1600 nM | 8600 ± 1400 nM | –
2 | CCOC(=O)Cc1cc(=O)nc(Nc2nc3ccccc3s2)[nH]1 [6-SMD18-1] | 3400 ± 200 nM | 4000 ± 2000 nM | 9500 nM | – | > 10000 nM | –
3 | Cc1cccc(NCc2ccc(O)c3ncccc23)c1 [17-SMD58-12] | 1800 ± 400 nM | 1900 ± 400 nM | 6600 nM | 1500 ± 800 nM | 4000 ± 500 nM | –
4 | COC(=O)/C=C1/N=C(Nc2nc3ccccc3s2)NC1=O [5-SMD18] | < 10000 nM | 6500 nM | 7000 ± 1100 nM | < 10000 nM | – | IC50 [1, 13]: 7200 ± 100 nM; IC50 [4]: 7200 ± 200 nM; IC50 ([5]; 72 h): 2500 ± 800 nM
5 | Oc1ccc(CN2CCN(c3ccccn3)CC2)c2cccnc12 [21-SMD58-19] | 2600 ± 700 nM | 2200 ± 100 nM | 2700 nM | 2800 ± 600 nM | 3000 ± 1000 nM | –
6 | CC(C)c1cc(=O)[nH]c(Nc2nc3ccccc3s2)n1 [8-SMD18-14] | 4500 ± 1500 nM | 3600 ± 1800 nM | > 10000 nM | – | > 10000 nM | –
7 | Oc1ccc(Cc2ccc(O)c3ncccc23)c2cccnc12 [11-SMD58-1] | 450 nM | 250 ± 500 nM | 2800 ± 1700 nM | 100 nM | 1400 ± 800 nM | IC50 [1, 14]: < 1000 nM
8 | Cc1cc(C)nc(NC(=N)Nc2ccc(Cl)c(C(F)(F)F)c2)n1 [4-SMD6-8] | 1600 ± 400 nM | 2100 ± 500 nM | – | 2200 ± 300 nM | 2500 ± 500 nM | IC50 ([6]; certain cancer cell lines): < 3000 nM
9 | Cc1cccc(NCc2ccc(O)c3ncccc23)n1 [24-SMD58-23] | 2800 ± 100 nM | 1600 ± 300 nM | 2300 nM | 2300 ± 300 nM | 3600 ± 500 nM | –
10 | CCOC(=O)C1CCN(Cc2ccc(O)c3ncccc23)CC1 [10-SMD58] | – | 300 nM | 2400 ± 1500 nM | – | – | IC50 [1, 14]: < 1000 nM; IC50 [4]: 500 nM; IC50 ([5]; 72 h): 3500 ± 500 nM; IC50 ([6]; five cancer cell lines): < 3500 nM
11 | CC(C)(C)c1cc(=O)[nH]c(Nc2nc3ccccc3s2)n1 [9-SMD18-15-BAS 125346 60] | 9900 nM | 9900 nM | 7500 nM | – | > 10000 nM | –
12 | CN1CCN(Cc2ccc(O)c3ncccc23)CC1 [14-SMD58-7] | 700 ± 400 nM | 1700 ± 200 nM | 3900 ± 100 nM | 400 nM | 3200 ± 100 nM | –
13 | CCC(=O)NC(c1cccs1)c1cc([N+](=O)[O-])c2cccnc2c1O (stereo not shown) [26-SMD58-27] | 5000 ± 400 nM | 4200 ± 1200 nM | 5600 nM | 3200 ± 800 nM | 4600 ± 800 nM | –
14 | CCN1CCN(Cc2ccc(O)c3ncccc23)CC1 [22-SMD58-20] | 2100 nM | 2100 ± 1200 nM | 7200 ± 400 nM | 1400 ± 200 nM | 4100 ± 100 nM | –
15 | COc1cccc(NCc2ccc(O)c3ncccc23)c1 [19-SMD58-14] | 1300 ± 900 nM | 2100 ± 100 nM | 5000 ± 900 nM | 1900 nM | 2900 ± 300 nM | –
16 | Cc1cccnc1NCc1ccc(O)c2ncccc12 [23-SMD58-22] | 1400 ± 400 nM | 1500 ± 100 nM | 3100 ± 600 nM | 2800 nM | 3300 ± 700 nM | –
17 | Oc1ccc(Br)cc1/C=N/Nc1nc2nonc2nc1Nc1ccc(F)cc1 [Compound 2] | – | – | – | – | – | IC50 ([7]; Homo sapiens, HCT-116, 72 h): < 3000 nM; IC50 [7]: 1500 ± 1000 nM; IC50 ([8]; Homo sapiens, HCT-116, 72 h): < 3000 nM; IC50 [8]: 1800 ± 700 nM; IC50 ([9]; 72 h): 6000 ± 1400 nM; IC50 ([9]; Mus musculus, NIH3T3, 72 h): 8000 nM; toxic effect in colony formation assay [10]: significant toxic effect; toxic effect in colony formation assay [11]: significant toxic effect
18 | CCOC(=O)C1CCCN(Cc2ccc(O)c3ncccc23)C1 (stereo not shown) [12-SMD58] | 1600 ± 400 nM | 2000 ± 100 nM | 4200 ± 1200 nM | 900 nM | 2200 ± 900 nM | –
19 | CCCOc1ccc(NC(=N)Nc2nc(C)cc(C)n2)cc1 [3-SMD6-5] | > 10000 nM | 8100 ± 600 nM | > 10000 nM | > 10000 nM | > 10000 nM | –
20 | Cc1cc(C)nc(NC(=N)Nc2cc(Oc3ccccc3)ccc2Cl)n1 [1-SMD6] | – | 1500 ± 100 nM | 8000 ± 500 nM | – | < 10000 nM | IC50 [1, 13]: 1000 ± 700 nM; IC50 [4]: 3500 ± 1600 nM; IC50 ([5]; 72 h): 5000 ± 1000 nM
21 | Cc1[nH]c(Nc2nc3ccccc3s2)nc(=O)c1Cc1ccccc1 [7-SMD18-8] | 10000 nM | > 10000 nM | > 10000 nM | – | > 10000 nM | IC50 [1, 13]: > 10000 nM; IC50 ([2]; 72 h): 7200 nM
22 | Oc1ccc(CNc2ccc(C(F)(F)F)cc2)c2cccnc12 [18-SMD58-13] | 1600 ± 100 nM | 2000 ± 100 nM | 5200 ± 400 nM | 1200 ± 100 nM | 2800 ± 500 nM | –
23 | CCOc1ccc(NCc2ccc(O)c3ncccc23)cc1 [16-SMD58-11] | 2300 ± 100 nM | 1200 ± 200 nM | 4900 ± 1100 nM | 1700 ± 100 nM | 3000 ± 1300 nM | –
24 | CCOC(=O)N1CCN(Cc2ccc(O)c3ncccc23)CC1 [13-SMD58-5] | 2100 ± 200 nM | 1000 ± 100 nM | 5300 ± 100 nM | 1900 nM | 3700 ± 500 nM | –
25 | Oc1ccc(CN2CCN(Cc3ccccc3)CC2)c2cccnc12 [15-SMD58-8] | 1700 ± 700 nM | 2500 ± 1600 nM | 5400 ± 700 nM | 1800 ± 700 nM | 1700 ± 700 nM | –
26 | Cc1cc(C)nc(NC(=N)Nc2ccc(Cl)cc2C(=O)c2ccccc2)n1 [2-SMD6-4] | 2200 ± 800 nM | 2100 ± 100 nM | > 10000 nM | 2500 ± 400 nM | 7400 ± 500 nM | IC50 ([6]; certain cancer cell lines): < 3000 nM
27 | CCC(=O)NC(c1ccc(OC)cc1)c1cc([N+](=O)[O-])c2cccnc2c1O (stereo not shown) [25-SMD58-26] | 6800 ± 200 nM | 7100 ± 1100 nM | 7500 nM | 3200 nM | > 10000 nM | –
